In patent publication US20220331408A1, “TREATMENT OF GLYCOGEN STORAGE DISEASE (GSD)” (GENETHON, priority 2019, published 2022):

Legend:
[1] = biological target: T1, human GAA (hGAA) (Homo sapiens, UniProt P10253); assay: Circulating hGAA levels by Western blot in wild-type mice injected with AAV-GAA and given chaperones in drinking water; type: in vivo; details: wild-type C57Bl/6 mice, AAV-GAA 5×10^11 vg/kg, three months after vector injection, vs AAV-GAA mice on normal water (FIG. 2)
Protocol: Six-eight-week-old C57Bl/6 male mice were divided into 9 groups of five mice. 5×10^11 vg/kg of AAV8-sp7-Δ8-co1GAA vectors were administered at day 0 intravenously in awake, restrained animals via tail vein injection. Two months after the AAV treatment, 7 pharmacological chaperone molecules or combination of them were orally administered to the mice using a “3 on/4 off” regimen (three consecutive days of treatment followed by four consecutive days with drinking water only) for four weeks. At the end of this four-week period, all mice were sacrificed and different organs and muscles were collected (liver, heart, brain, spinal cord, diaphragm, quadriceps, and triceps). C57Bl/6 mice were injected either with PBS (CTRL) or with 5×10^11 vg/kg of the AAV8 vector expressing secretable therapeutic hGAA polypeptide (AAV-GAA). […]
Three months after vector injection, mice were sacrificed and the levels of human GAA (hGAA) in blood and tissues were analyzed by Western blot. […]
Mouse tissues were collected at sacrifice and homogenized in PBS. Protein concentration was determined using the BCA Protein Assay (Thermo Fisher Scientific, Waltham, Mass.). […] To measure the uptake of GAA in tissues, the 70 KDa band (mature form), visualized by the anti-GAA antibody was quantified and normalized to the levels of expression of GAPDH used as loading control.

[2] = biological target: T1, human GAA (hGAA); assay: Circulating hGAA levels by Western blot in GAA KO mice injected with AAV-hGAA plus chaperones; type: in vivo; details: AAV-hGAA 1×10^11 vg/kg, two months after vector injection (FIG. 5)
Protocol: (§1) Three to four-month-old GAA deficient male mice were divided into six groups and one control group was composed by wild-type littermates. Each group was composed by eight mice in maximum two cages, to facilitate the administration of the drugs dissolved in drinking water. Starting from day 0, GAA deficient (KO) mice (mouse strain B6; 129-Gaa^tm1Rabn/J) were injected with AAV-hGAA at 1×10^11 vg/kg via tail vein injection in combination with the different pharmacological chaperones (PC) dissolved in the drinking water. In parallel, untreated GAA wild-type mice and two groups of GAA deficient mice injected with the AAV-hGAA vector or PBS were used as controls. PC molecules were orally administered to the mice, using a “3 days on/4 days off” regimen, consisting in three consecutive days of treatment followed by four consecutive days with drinking water only, as described in FIG. 4. Mice receive 100 mg/kg/die of duvoglustat (DNJ, AX61Q1, Interchim, San Diego, Calif.), 100 mg/kg/die of duvoglustat combined with 25 mg/kg/die of ambroxol hydrochloride (DNJ-ABX), 25 mg/kg/die of ambroxol hydrochloride (ABX, A9797, Sigma, Saint Louis, Mo.), 4200 mg/kg/die of N-acetyl-cysteine (NAC, A7250, Sigma, Saint Louis, Mo.) dissolved in drinking water (FIG. 4) or normal drinking water.
Circulating hGAA activity and levels were monitored over a period of two months. […]

[3] = biological target: T1, human GAA (hGAA); assay: Mature lysosomal 70 KDa hGAA in tissues (uptake) by Western blot, wild-type mice injected with AAV-GAA plus chaperones; type: in vivo; parameters: expressed in transfected cells; details: for GAA uptake in tissues: tissues overall (FIG. 3)
Protocol: Six-eight-week-old C57Bl/6 male mice were divided into 9 groups of five mice. 5×10^11 vg/kg of AAV8-sp7-Δ8-co1GAA vectors were administered at day 0 intravenously in awake, restrained animals via tail vein injection. Two months after the AAV treatment, 7 pharmacological chaperone molecules or combination of them were orally administered to the mice using a “3 on/4 off” regimen (three consecutive days of treatment followed by four consecutive days with drinking water only) for four weeks. At the end of this four-week period, all mice were sacrificed and different organs and muscles were collected (liver, heart, brain, spinal cord, diaphragm, quadriceps, and triceps). C57Bl/6 mice were injected either with PBS (CTRL) or with 5×10^11 vg/kg of the AAV8 vector expressing secretable therapeutic hGAA polypeptide (AAV-GAA).
Two months after vector injection, mice were treated for four weeks with 100 mg/kg/die of duvoglustat (DNJ, AX61Q1, Interchim, San Diego, Calif.), 100 mg/kg/die of duvoglustat combined with 25 mg/kg/die of ambroxol (DNJ-ABX), 25 mg/kg/die of ambroxol hydrochloride (ABX, A9797, Sigma, Saint Louis, Mo.), 2 mg/kg/die of voglibose (VOGLIBOSE, S4101, Selleckchem, Houston, Tex.), 20 mg/kg/die of acarbose (ACARBOSE, S1271, Selleckchem, Houston, Tex.), 2 mg/kg/die of miglitol (MIGLITOL, S2589, Selleckchem, Houston, Tex.) or 4200 mg/kg/die of N-acetyl-cysteine (NAC, A7250, Sigma, Saint Louis, Mo.) dissolved in drinking water (FIG. 1). One group received normal drinking water (WATER).
Three months after vector injection, mice were sacrificed and the levels of human GAA (hGAA) in blood and tissues were analyzed by Western blot.
At the end of the study (3 months post-injection), animals were sacrificed by CO2 inhalation. Liver, heart, brain, spinal cord, diaphragm, quadriceps, and triceps were collected and snap-frozen in liquid nitrogen for biochemical analysis. Frozen samples were stored at −80° C. until processing.
Mouse tissues were collected at sacrifice and homogenized in PBS. Protein concentration was determined using the BCA Protein Assay (Thermo Fisher Scientific, Waltham, Mass.). Plasma and tissues samples were diluted 1:20 in water (except for brain, where samples were diluted 1:200). SDS-page electrophoresis was performed in a 4-12% gradient polyacrylamide gel. After transfer, the membrane was blocked with Odyssey buffer (Li-Cor Biosciences, Lincoln, Nebr.), incubated with an anti-human GAA antibody (rabbit monoclonal antibody, Abcam, Cambridge, UK) and an anti-GAPDH antibody (rabbit polyclonal antibodies, PA1-988, Life Technologies, Carlsbad, Calif.). The membrane was washed and incubated with the appropriate secondary antibody (Li-Cor Biosciences, Lincoln, Nebr.), and visualized by Odyssey imaging system (925-32213, Li-Cor Biosciences, Lincoln, Nebr.). To measure the uptake of GAA in tissues, the 70 KDa band (mature form), visualized by the anti-GAA antibody was quantified and normalized to the levels of expression of GAPDH used as loading control.

[4] = biological target: GAA (Homo sapiens, UniProt P10253); assay: GAA activity in tissues (4-MU substrate cleavage) of GAA KO mice injected with AAV-hGAA plus chaperones; type: in vivo; details: for GAA activity (uptake) in tissues: tissues overall (FIG. 7)
Protocol: as §1
Circulating hGAA activity and levels were monitored over a period of two months. Mice were sacrificed and different organs and muscles were collected (heart, diaphragm, quadriceps, and triceps) to measure the uptake of GAA in tissues and the glycogen clearance.
At the end of the study (2 months post-injection), animals were sacrificed by CO2 inhalation. Heart, diaphragm, quadriceps, and triceps were collected and snap-frozen in liquid nitrogen for biochemical analysis. Frozen samples are stored at −80° C. until processing.
GAA activity was assessed in plasma and tissue by measurement of 4-methyl-umbelliferyl-α-d-glucoside (4-MU, Sigma, St Louis, Mo.) cleavage at pH 4.3. To this end, mouse tissues collected at sacrifice was homogenized in PBS. Insoluble proteins were removed by centrifugation. The protein content of the resultant lysates was quantified via the BCA Protein Assay (Thermo Fisher Scientific, Waltham, Mass.). Plasma and tissues samples were diluted in water and 10 μL of each sample were incubated with 20 μL of reconstituted substrate for 1 hr at 37° C. After stopping the reaction, the released fluorescence was measured with EN-SPIRE® fluorimeter (Perkin Elmer, Waltham, Mass.). GAA activity was normalized against total protein content or plasma volume.

[5] = general statement, no test described; cited from earlier work
[6] = system: GAA; details: Pompe cells model expressing mutant forms of GAA, reference [9]; cited from earlier work

OC[C@H]1NC[C@H](O)[C@@H](O)[C@@H]1O [DNJ, 1-deoxynojirimycin]
levels of circulating hGAA [1]: significant increase | levels of circulating hGAA [2]: significant increase | mature lysosomal form of hGAA in triceps ([3]; Western blot (FIG. 3B), significance reached in triceps only for DNJ group): increased levels | mature lysosomal form of hGAA in spinal cord ([3]; Western blot (FIG. 3F)): increased levels | mature lysosomal form of hGAA in diaphragm ([3]; Western blot band density normalized to GAPDH (FIG. 3C)): increased levels | GAA uptake in tissues [3]: increase | GAA activity in heart ([4]; two months (FIG. 7A), significance only with both DNJ and ABX): increased enzyme activity | GAA activity in diaphragm ([4]; two months (FIG. 7B), significance only with both DNJ and ABX): increased enzyme activity | GAA activity in triceps ([4]; two months (FIG. 7C), significance only with both DNJ and ABX): increased enzyme activity | GAA activity in quadriceps ([4]; two months (FIG. 7D), significance only with both DNJ and ABX): increased enzyme activity

recombinant hGAA (ERT): recombinant GAA polypeptide alglucosidase alfa, marketed by Genzyme as Lumizyme or Myozyme
half-life [5]: relatively short

CC(=O)N[C@@H](CS)C(=O)O [NAC, N-acetylcysteine]
levels of circulating hGAA [1]: significant increase | GAA uptake in tissues [3]: increase | GAA activity (uptake) in tissues [4]: No significant differences

Nc1c(Br)cc(Br)cc1CN[C@H]1CC[C@H](O)CC1 [ABX, ambroxol]
tissue uptake of GAA, especially in a tissue of the nervous system [6]: did not increase | GAA uptake in tissues [3]: increase | GAA activity (uptake) in tissues [4]: No significant differences
